Values joined by “and” are separate entries in the source; they are usually repeats but may differ in a detail not shown here. Equal values may be shown once. Toxic doses and inconclusive results are not listed.
System: CD2F1 mice, L1210 leukemia sc, survival T/C
Assay: NCI In Vivo Anticancer Drug Screen. Data for tumor model L1210 Leukemia (subcutaneous) in CD2F1 (CDF1) mice
Settings: endpoint: median survival time, higher = longer survival
Method in brief: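 Mice with transplanted tumor dosed; survival/tumor size read; T/C vs vehicle controls.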

## Nc1ccn([C@@H]2C=C(CO)[C@@H](O)[C@H]2O)c(=O)n1
dose: 0.13 mg/kg/injection, schedule: Q03HX024 (ip), vehicle: saline
  T/C: 116 % of control
dose: 0.19 mg/kg/injection, schedule: Q03HX024 (ip), vehicle: saline
  T/C: 112 % of control
dose: 0.3 mg/kg/injection, schedule: Q06HX018 (ip), vehicle: saline
  T/C: 108 % of control
dose: 0.44 mg/kg/injection, schedule: Q01DX009 (ip), vehicle: saline
  T/C: 100 % of control and 103 % of control
dose: 0.44 mg/kg/injection, schedule: Q03HX016 (ip), vehicle: saline
  T/C: 119 % of control
dose: 0.44 mg/kg/injection, schedule: Q03HX024 (ip), vehicle: saline
  T/C: 89 % of control
dose: 0.45 mg/kg/injection, schedule: Q01DX009 (ip), vehicle: saline
  T/C: 103 % of control and 113 % of control (2×)
dose: 0.45 mg/kg/injection, schedule: Q01DX009 (sc), vehicle: saline
  T/C: 99 % of control
dose: 0.45 mg/kg/injection, schedule: Q03HX008 (ip), vehicle: saline
  T/C: 118 % of control
dose: 0.45 mg/kg/injection, schedule: Q06HX018 (ip), vehicle: saline
  T/C: 163 % of control
dose: 0.67 mg/kg/injection, schedule: Q03HX008 (ip), vehicle: saline
  T/C: 119 % of control
dose: 0.67 mg/kg/injection, schedule: Q06HX018 (ip), vehicle: saline
  T/C: 214 % of control
dose: 0.8 mg/kg/injection, schedule: Q01DX009 (ip), vehicle: saline
  T/C: 157 % of control
dose: 0.99 mg/kg/injection, schedule: Q03HX008 (ip), vehicle: saline
  T/C: 120 % of control
dose: 1.0 mg/kg/injection, schedule: Q01DX005 (iv), vehicle: saline
  T/C: 151 % of control
dose: 1.0 mg/kg/injection, schedule: Q01DX009 (sc), vehicle: saline
  T/C: 180 % of control
dose: 1.0 mg/kg/injection, schedule: Q03HX016 (ip), vehicle: saline
  T/C: 161 % of control
dose: 1.0 mg/kg/injection, schedule: Q06HX018 (ip), vehicle: saline
  T/C: 108 % of control
dose: 1.2 mg/kg/injection, schedule: Q01DX009 (ip), vehicle: saline
  T/C: 189 % of control
dose: 1.49 mg/kg/injection, schedule: Q01DX005 (iv), vehicle: saline
  T/C: 97 % of control
dose: 1.49 mg/kg/injection, schedule: Q03HX008 (ip), vehicle: saline
  T/C: 89 % of control
dose: 1.5 mg/kg/injection, schedule: Q01DX005 (iv), vehicle: saline
  T/C: 168 % of control
dose: 1.5 mg/kg/injection, schedule: Q01DX009 (sc), vehicle: saline
  T/C: 182 % of control
dose: 2.2 mg/kg/injection, schedule: Q01DX005 (iv), vehicle: saline
  T/C: 162 % of control
dose: 2.23 mg/kg/injection, schedule: Q01DX005 (iv), vehicle: saline
  T/C: 89 % of control
dose: 2.25 mg/kg/injection, schedule: Q01DX009 (sc), vehicle: saline
  T/C: 97 % of control
dose: 3.0 mg/kg/injection, schedule: Q03HX008 (ip), vehicle: saline
  T/C: 154 % of control
dose: 3.3 mg/kg/injection, schedule: Q01DX005 (iv), vehicle: saline
  T/C: 90 % of control
dose: 4.5 mg/kg/injection, schedule: Q03HX008 (ip), vehicle: saline
  T/C: 113 % of control
dose: 4.8 mg/kg/injection, schedule: Q01DX005 (iv), vehicle: saline
  T/C: 86 % of control
dose: 5.0 mg/kg/injection, schedule: Q01DX001 (ip), vehicle: saline
  T/C: 118 % of control
dose: 9.0 mg/kg/injection, schedule: Q03HX004 (iv), vehicle: saline
  T/C: 152 % of control
dose: 10.7 mg/kg/injection, schedule: Q01DX001 (ip), vehicle: saline
  T/C: 123 % of control
dose: 11.2 mg/kg/injection, schedule: Q01DX001 (ip), vehicle: saline
  T/C: 110 % of control and 123 % of control
dose: 11.2 mg/kg/injection, schedule: Q01DX001 (iv), vehicle: saline
  T/C: 119 % of control
dose: 16.9 mg/kg/injection, schedule: Q01DX001 (iv), vehicle: saline
  T/C: 100 % of control
dose: 36.0 mg/kg/injection, schedule: Q01DX001 (ip), vehicle: saline
  T/C: 154 % of control
dose: 37.9 mg/kg/injection, schedule: Q01DX001 (iv), vehicle: saline
  T/C: 90 % of control
dose: 54.0 mg/kg/injection, schedule: Q01DX001 (ip), vehicle: saline
  T/C: 164 % of control
dose: 54.0 mg/kg/injection, schedule: Q01DX001 (iv), vehicle: saline
  T/C: 158 % of control
dose: 56.8 mg/kg/injection, schedule: Q01DX001 (iv), vehicle: saline
  T/C: 88 % of control
dose: 81.0 mg/kg/injection, schedule: Q01DX001 (ip), vehicle: saline
  T/C: 106 % of control
dose: 81.0 mg/kg/injection, schedule: Q01DX001 (iv), vehicle: saline
  T/C: 103 % of control
dose: 121.0 mg/kg/injection, schedule: Q01DX001 (iv), vehicle: saline
  T/C: 91 % of control
dose: 88.0 micrograms/kg/injection, schedule: Q03HX024 (ip), vehicle: saline
  T/C: 112 % of control
dose: 200.0 micrograms/kg/injection, schedule: Q03HX024 (ip), vehicle: saline
  T/C: 166 % of control

## CC(=O)Oc1ccc[nH]c1=O
dose: 16.7 mg/kg/injection, schedule: Q03HX027 (ip), vehicle: saline with Tween-80
  T/C: 107 % of control
dose: 33.0 mg/kg/injection, schedule: Q03HX027 (ip), vehicle: saline with Tween-80
  T/C: 104 % of control
dose: 50.0 mg/kg/injection, schedule: Q01DX009 (ip), vehicle: saline with Tween-80
  T/C: 98 % of control
dose: 66.7 mg/kg/injection, schedule: Q03HX027 (ip), vehicle: saline with Tween-80
  T/C: 96 % of control
dose: 100.0 mg/kg/injection, schedule: Q01DX009 (ip), vehicle: saline with Tween-80
  T/C: 98 % of control
dose: 133.0 mg/kg/injection, schedule: Q03HX027 (ip), vehicle: saline with Tween-80
  T/C: 105 % of control
dose: 200.0 mg/kg/injection, schedule: Q01DX009 (ip), vehicle: saline with Tween-80
  T/C: 98 % of control
dose: 266.0 mg/kg/injection, schedule: Q03HX027 (ip), vehicle: saline with Tween-80
  T/C: 108 % of control
dose: 800.0 mg/kg/injection, schedule: Q01DX009 (ip), vehicle: saline with Tween-80
  T/C: 117 % of control

## Nc1c(/C=C/c2cc3cc(C4=NCCN4)ccc3o2)[nH]c2cc(C3=NCCN3)ccc12
dose: 3.12 mg/kg/injection, schedule: Q01DX009 (ip), vehicle: Klucel (hydroxypropylcellulose) (HPC)
  T/C: 100 % of control
dose: 6.25 mg/kg/injection, schedule: Q01DX009 (ip), vehicle: Klucel (hydroxypropylcellulose) (HPC)
  T/C: 100 % of control
dose: 12.5 mg/kg/injection, schedule: Q01DX009 (ip), vehicle: Klucel (hydroxypropylcellulose) (HPC)
  T/C: 96 % of control
dose: 25.0 mg/kg/injection, schedule: Q01DX009 (ip), vehicle: Klucel (hydroxypropylcellulose) (HPC)
  T/C: 106 % of control

## O=c1n[n+]([O-])ccn1C1OC(CO)C(O)C1O (configuration not stated)
dose: 172.8 mg/kg/injection, schedule: Q01DX009 (ip), vehicle: saline
  T/C: 109 % of control
dose: 288.0 mg/kg/injection, schedule: Q01DX009 (ip), vehicle: saline
  T/C: 123 % of control
dose: 480.0 mg/kg/injection, schedule: Q01DX009 (ip), vehicle: saline
  T/C: 152 % of control

## COc1ccc2c(c1OC)C(=O)O[C@@H]2[C@H]1c2c(cc3c(c2OC)OCO3)CCN1C
dose: 14.0 mg/kg/injection, schedule: Q01DX Z (sc), vehicle: water
  T/C: 100 % of control
dose: 23.0 mg/kg/injection, schedule: Q01DX Z (sc), vehicle: water
  T/C: 100 % of control
dose: 39.0 mg/kg/injection, schedule: Q01DX Z (sc), vehicle: water
  T/C: 100 % of control
dose: 65.0 mg/kg/injection, schedule: Q01DX Z (sc), vehicle: water
  T/C: 100 % of control
dose: 108.0 mg/kg/injection, schedule: Q01DX Z (sc), vehicle: water
  T/C: 100 % of control
dose: 180.0 mg/kg/injection, schedule: Q01DX Z (sc), vehicle: water
  T/C: 100 % of control
dose: 300.0 mg/kg/injection, schedule: Q01DX Z (sc), vehicle: water
  T/C: 100 % of control
dose: 500.0 mg/kg/injection, schedule: Q01DX Z (sc), vehicle: water
  T/C: 100 % of control

## CO[C@H](/C(C)=C/C=C/C(C)=C/c1coc(C)n1)[C@H](C)[C@H]1C[C@@H](O)[C@@]2(C)O[C@H]2/C=C/[C@@H](C)[C@@H]2C[C@@H](CC(=O)O2)C[C@H]2O[C@@H]2C(=O)O1
dose: 0.25 mg/kg/injection, schedule: Q01DX009 (ip), vehicle: Klucel (hydroxypropylcellulose) (HPC)
  T/C: 107 % of control
dose: 1.0 mg/kg/injection, schedule: Q01DX009 (ip), vehicle: Klucel (hydroxypropylcellulose) (HPC)
  T/C: 119 % of control

From PubChem BioAssay AID258 (DTP/NCI, 2004)
